Measurements published in ChEMBL document CHEMBL1201862, “PubChem BioAssay data set” (2004).
The source made the active and inactive calls.

What was measured:
Estrogen receptor = target: T1, Estrogen receptor (Homo sapiens, UniProt P03372); assay: potentiators of ERα–SRC-1 coactivator binding, dose response, biochemical, TR-FRET, ERα LBD (AID 737)
T1 sequence (P03372 whole entry): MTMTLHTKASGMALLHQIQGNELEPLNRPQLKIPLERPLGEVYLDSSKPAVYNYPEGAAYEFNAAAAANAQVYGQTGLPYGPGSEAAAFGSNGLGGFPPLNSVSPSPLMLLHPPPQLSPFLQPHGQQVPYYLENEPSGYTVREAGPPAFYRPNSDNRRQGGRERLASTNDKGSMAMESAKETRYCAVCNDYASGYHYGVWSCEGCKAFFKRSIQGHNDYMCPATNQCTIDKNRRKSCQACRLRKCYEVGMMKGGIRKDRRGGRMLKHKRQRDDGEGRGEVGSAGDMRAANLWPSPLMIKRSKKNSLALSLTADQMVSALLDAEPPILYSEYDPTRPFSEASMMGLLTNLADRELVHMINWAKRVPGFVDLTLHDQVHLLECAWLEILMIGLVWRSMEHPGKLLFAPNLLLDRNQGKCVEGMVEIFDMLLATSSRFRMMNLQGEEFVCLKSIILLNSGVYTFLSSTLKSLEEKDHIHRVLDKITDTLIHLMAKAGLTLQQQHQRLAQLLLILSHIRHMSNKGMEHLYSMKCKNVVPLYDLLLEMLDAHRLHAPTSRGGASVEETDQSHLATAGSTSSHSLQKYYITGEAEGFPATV

[1] = cytotoxicity in HEK-293T cells, dose response, cytotoxicity control for BCR NF-kB inhibitor project, luminescence, B-cell screen hits (AID 489021); type: functional, cell-based;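 further: HEK-293T cells carrying an NF-kB luciferase reporter; cells exposed to compound for about 14 hours before viability readout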
Cytochrome P450 2D6 = Cytochrome P450 2D6 (Homo sapiens, UniProt P10635); assay: qHTS Assay for Inhibitors and Substrates of Cytochrome P450 2D6. [Related pubchem assays: 410 ]; type: ADME; settings: read-out: Potency
[2] = THP-1 cell cytotoxicity, dose response, cytotoxicity control for non-replicating M. tuberculosis project (AID 489025); type: functional
cells = type: functional
Estrogen receptor beta [3] = target: T2, Estrogen receptor beta (Homo sapiens, UniProt Q92731);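 further: recombinant ER-beta bound to coactivator SRC1 peptide in presence of estradiol agonist; inhibitors block coactivator peptide binding and lower the FRET signal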
Estrogen receptor beta [4] = target: T2, Estrogen receptor beta; assay: ERβ–SRC-3 coactivator interaction inhibitors, confirmation, orthogonal assay, biochemical, ELISA, streptavidin-HRP readout (AID 1060)
[5] = target: T3, Carboxy-terminal domain RNA polymerase II polypeptide A small phosphatase 1 (Homo sapiens, UniProt Q9GZU7); assay: inhibitors of CTDSP1, concentration-response testing, biochemical assay, absorbance-based, actives from ultra-high-throughput screening (AID 540297); type: functional
T3 sequence (Q9GZU7 whole entry): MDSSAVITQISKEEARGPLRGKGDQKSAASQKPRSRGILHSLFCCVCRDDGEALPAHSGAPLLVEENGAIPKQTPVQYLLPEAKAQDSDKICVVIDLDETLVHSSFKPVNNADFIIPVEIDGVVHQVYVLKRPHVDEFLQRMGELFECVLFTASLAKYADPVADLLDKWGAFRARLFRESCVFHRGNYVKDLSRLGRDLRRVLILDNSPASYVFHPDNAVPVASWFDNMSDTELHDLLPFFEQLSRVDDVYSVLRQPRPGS

Hexokinase HKDC1 = target: T4, Hexokinase HKDC1 (Homo sapiens, UniProt Q2TB90); assay: HKDC1 hexokinase inhibitors, dose response, biochemical, W721R variant (AID 504729); type: functional
T4 sequence (Q2TB90 whole entry): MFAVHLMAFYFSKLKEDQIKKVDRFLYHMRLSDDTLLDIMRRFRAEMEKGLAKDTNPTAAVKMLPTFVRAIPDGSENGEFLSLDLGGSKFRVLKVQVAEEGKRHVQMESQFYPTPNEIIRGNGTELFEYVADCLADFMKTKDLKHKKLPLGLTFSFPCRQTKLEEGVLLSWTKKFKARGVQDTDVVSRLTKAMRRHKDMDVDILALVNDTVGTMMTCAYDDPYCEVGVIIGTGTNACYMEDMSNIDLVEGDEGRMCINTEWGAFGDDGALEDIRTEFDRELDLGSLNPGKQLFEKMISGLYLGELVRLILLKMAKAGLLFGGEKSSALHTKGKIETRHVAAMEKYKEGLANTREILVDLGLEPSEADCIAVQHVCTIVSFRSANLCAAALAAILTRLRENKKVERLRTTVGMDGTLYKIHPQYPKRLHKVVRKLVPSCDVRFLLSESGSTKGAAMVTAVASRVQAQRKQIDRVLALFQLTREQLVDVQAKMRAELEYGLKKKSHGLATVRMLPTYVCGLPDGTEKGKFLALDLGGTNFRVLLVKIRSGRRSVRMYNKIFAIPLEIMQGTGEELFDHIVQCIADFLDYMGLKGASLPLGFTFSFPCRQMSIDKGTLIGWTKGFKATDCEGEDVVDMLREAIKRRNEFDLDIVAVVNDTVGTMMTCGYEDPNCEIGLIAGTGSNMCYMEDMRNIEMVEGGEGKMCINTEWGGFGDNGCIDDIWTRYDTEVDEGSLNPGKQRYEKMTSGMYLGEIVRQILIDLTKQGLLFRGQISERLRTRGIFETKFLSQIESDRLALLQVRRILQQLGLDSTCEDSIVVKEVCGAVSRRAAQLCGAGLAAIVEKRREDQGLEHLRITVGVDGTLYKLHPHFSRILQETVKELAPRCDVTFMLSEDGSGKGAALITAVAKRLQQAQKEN

Bcl-2-like protein 10 = target: T5, Bcl-2-like protein 10 (Homo sapiens, UniProt Q9HD36); assay: displacers of TR3 peptide from Bcl-B, primary screen, selectivity assay for Bfl-1 inhibitor project, biochemical, fluorescence polarization, FITC-TR3 peptide (AID 748);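 further: fluorescence polarization from a fluorescein-labelled TR3 peptide binding purified Bcl-B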
T5 sequence (Q9HD36 whole entry): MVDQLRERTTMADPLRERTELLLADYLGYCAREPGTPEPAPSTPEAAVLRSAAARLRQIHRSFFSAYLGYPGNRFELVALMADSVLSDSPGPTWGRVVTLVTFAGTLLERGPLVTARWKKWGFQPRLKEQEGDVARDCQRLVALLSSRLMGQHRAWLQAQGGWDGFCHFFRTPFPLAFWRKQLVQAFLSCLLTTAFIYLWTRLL

[6] = target: T6, Epstein-Barr nuclear antigen 1 (Epstein-Barr virus (strain B95-8) (HHV-4) (Human herpesvirus 4), UniProt P03211); assay: EBNA-1 inhibitors, dose response, biochemical, fluorescence polarization, 1536-well (AID 2381); design: species or system human gammaherpesvirus 4;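 further: fluorescence polarization of a Cy5 DNA probe bound by EBNA-1 protein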
T6 sequence (P03211 whole entry): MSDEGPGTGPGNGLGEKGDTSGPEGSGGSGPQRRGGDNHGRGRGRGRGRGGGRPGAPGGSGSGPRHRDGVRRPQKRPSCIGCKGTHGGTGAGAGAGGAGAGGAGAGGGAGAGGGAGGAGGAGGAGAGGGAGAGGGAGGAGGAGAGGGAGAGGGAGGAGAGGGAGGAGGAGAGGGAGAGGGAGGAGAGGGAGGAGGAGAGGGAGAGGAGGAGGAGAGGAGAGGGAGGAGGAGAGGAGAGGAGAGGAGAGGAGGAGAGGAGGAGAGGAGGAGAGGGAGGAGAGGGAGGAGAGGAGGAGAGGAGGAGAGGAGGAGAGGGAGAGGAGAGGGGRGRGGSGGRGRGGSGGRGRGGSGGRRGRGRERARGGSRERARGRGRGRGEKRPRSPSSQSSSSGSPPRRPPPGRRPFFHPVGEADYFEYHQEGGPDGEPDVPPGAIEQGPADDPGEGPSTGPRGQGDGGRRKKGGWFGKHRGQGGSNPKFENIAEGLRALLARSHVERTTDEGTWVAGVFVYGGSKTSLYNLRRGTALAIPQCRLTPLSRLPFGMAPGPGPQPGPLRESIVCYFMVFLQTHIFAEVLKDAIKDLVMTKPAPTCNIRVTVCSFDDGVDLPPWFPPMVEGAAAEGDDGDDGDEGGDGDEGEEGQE

[7] = target: T7, Lytic switch protein BZLF1 (Epstein-Barr virus (strain B95-8) (HHV-4) (Human herpesvirus 4), UniProt P03206); assay: EBV ZTA inhibitors, dose response, counter-screen for EBNA-1 inhibitor project, biochemical, fluorescence polarization, Epstein-Barr virus, 1536-well (AID 2377); design: species or system human gammaherpesvirus 4;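 further: fluorescence polarization of Cy5-labelled ZRE DNA probe bound by purified Zta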
T7 sequence (P03206 whole entry): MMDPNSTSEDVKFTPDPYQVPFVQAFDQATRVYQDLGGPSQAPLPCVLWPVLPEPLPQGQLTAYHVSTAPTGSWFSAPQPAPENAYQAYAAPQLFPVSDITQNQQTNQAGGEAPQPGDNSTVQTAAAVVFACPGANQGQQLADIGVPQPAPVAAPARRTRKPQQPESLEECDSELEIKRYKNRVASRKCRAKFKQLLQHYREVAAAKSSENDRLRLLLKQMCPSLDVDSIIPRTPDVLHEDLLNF

[8] = target: T8, Bifunctional protein GlmU (Mycobacterium tuberculosis, UniProt P9WMN3); assay: Inhibitors of Mycobacterial Glucosamine-1-phosphate acetyl transferase (GlmU). Secondary screen.; design: species or system Mycobacterium tuberculosis H37Rv
T8 sequence (P9WMN3 whole entry): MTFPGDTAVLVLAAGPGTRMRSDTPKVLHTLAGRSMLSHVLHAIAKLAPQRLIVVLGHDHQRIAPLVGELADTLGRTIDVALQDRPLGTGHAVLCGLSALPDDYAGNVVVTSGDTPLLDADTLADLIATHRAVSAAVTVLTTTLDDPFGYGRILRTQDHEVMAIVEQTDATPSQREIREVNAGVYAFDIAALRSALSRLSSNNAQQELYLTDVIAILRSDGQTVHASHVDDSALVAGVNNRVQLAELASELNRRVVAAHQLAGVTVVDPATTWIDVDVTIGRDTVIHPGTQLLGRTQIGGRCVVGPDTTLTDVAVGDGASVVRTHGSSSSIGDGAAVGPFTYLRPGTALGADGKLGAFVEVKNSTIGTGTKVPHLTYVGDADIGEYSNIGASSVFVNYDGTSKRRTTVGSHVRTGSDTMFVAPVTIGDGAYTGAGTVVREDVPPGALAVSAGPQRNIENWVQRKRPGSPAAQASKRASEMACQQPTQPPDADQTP

Nonstructural protein 1 = Nonstructural protein 1 (Influenza A virus, UniProt Q194T2); type: functional, Influenza A virus (A/California/07/2009(H1N1))
[9] = target: Peroxisome proliferator-activated receptor gamma/Nuclear receptor coactivator 2 (Homo sapiens, UniProt P37231); type: functional;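 further: agonist potency for raising coactivator recruitment to the receptor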
[10] = target: Peroxisome proliferator-activated receptor gamma/Nuclear receptor coactivator 1 (Homo sapiens, UniProt P37231); type: functional;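 further: agonist potency as compounds enhance coactivator SRC-1 recruitment to PPARgamma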
[11] = target: Peroxisome proliferator-activated receptor gamma/Nuclear receptor coactivator 3 (Homo sapiens, UniProt P37231); type: functional;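 further: agonist potency for raising coactivator recruitment to the receptor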

T2 sequence (Q92731 whole entry): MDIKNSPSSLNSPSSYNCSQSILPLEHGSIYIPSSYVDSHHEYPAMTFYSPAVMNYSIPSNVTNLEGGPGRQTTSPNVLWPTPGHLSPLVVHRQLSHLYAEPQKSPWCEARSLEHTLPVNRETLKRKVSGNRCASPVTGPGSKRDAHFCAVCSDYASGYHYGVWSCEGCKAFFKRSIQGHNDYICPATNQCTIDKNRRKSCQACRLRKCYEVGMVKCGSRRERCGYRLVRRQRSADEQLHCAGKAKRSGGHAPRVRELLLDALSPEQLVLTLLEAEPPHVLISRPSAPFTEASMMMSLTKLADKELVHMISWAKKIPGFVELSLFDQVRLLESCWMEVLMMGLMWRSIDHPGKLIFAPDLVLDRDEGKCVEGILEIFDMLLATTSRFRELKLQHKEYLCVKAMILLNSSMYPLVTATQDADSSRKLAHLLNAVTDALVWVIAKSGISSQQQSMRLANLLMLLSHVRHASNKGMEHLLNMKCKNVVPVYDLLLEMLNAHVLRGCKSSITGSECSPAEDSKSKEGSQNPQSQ
Chain of Peroxisome proliferator-activated receptor gamma/Nuclear receptor coactivator 1 (P37231 whole entry): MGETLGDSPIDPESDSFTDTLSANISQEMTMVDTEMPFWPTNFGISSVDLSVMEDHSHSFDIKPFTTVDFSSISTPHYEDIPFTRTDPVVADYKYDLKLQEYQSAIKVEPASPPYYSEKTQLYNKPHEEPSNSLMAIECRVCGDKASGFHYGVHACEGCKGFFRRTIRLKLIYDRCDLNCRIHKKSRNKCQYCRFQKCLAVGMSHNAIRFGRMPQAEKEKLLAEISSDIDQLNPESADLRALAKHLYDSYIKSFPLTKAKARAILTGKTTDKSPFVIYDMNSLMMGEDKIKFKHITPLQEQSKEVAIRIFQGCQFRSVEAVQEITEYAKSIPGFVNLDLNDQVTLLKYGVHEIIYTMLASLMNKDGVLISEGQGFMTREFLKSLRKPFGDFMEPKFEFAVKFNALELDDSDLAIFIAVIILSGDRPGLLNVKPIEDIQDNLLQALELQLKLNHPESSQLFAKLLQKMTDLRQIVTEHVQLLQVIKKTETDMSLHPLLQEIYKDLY
Chain of Peroxisome proliferator-activated receptor gamma/Nuclear receptor coactivator 1 (Q15788 whole entry, further chain): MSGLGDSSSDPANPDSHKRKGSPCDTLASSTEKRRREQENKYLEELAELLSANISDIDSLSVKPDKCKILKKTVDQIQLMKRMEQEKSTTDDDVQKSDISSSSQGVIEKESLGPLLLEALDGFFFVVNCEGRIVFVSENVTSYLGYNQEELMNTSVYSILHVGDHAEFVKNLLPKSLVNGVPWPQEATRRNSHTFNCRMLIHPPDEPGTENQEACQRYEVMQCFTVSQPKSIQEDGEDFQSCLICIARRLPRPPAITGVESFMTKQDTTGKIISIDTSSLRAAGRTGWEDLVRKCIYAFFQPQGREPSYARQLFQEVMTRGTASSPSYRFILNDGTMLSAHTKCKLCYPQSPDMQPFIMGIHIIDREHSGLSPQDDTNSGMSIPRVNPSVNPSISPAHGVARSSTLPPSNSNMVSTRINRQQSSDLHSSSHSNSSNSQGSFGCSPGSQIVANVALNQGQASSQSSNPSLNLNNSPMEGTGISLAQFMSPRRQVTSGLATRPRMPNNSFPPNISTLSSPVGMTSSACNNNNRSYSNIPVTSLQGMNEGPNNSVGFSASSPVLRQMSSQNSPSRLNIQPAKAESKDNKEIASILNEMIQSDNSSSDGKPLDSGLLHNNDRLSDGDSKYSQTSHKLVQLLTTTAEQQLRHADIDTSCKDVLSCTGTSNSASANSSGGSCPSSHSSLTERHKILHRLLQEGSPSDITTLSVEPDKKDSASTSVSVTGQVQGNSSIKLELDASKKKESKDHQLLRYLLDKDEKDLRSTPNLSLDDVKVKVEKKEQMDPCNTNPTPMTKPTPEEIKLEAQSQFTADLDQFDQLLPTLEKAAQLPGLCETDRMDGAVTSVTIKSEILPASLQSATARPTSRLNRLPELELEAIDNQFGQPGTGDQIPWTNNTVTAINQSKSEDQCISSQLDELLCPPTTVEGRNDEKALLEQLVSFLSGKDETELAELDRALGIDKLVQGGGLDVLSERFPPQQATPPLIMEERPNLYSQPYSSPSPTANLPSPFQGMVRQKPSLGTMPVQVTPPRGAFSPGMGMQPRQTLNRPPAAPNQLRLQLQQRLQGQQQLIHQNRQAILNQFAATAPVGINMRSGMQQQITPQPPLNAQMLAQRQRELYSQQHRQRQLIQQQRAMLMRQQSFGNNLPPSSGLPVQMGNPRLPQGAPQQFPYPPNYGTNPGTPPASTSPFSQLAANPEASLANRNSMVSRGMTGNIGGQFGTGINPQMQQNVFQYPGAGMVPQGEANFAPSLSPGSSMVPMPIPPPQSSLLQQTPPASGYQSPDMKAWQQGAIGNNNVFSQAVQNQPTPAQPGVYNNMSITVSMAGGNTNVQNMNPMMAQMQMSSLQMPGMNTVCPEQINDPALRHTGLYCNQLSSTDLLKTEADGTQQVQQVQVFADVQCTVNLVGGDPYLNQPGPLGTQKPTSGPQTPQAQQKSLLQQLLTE
Chain of Peroxisome proliferator-activated receptor gamma/Nuclear receptor coactivator 2 (P37231 whole entry): as the sequence (P37231 whole entry) above
Chain of Peroxisome proliferator-activated receptor gamma/Nuclear receptor coactivator 2 (Q15596 whole entry, further chain): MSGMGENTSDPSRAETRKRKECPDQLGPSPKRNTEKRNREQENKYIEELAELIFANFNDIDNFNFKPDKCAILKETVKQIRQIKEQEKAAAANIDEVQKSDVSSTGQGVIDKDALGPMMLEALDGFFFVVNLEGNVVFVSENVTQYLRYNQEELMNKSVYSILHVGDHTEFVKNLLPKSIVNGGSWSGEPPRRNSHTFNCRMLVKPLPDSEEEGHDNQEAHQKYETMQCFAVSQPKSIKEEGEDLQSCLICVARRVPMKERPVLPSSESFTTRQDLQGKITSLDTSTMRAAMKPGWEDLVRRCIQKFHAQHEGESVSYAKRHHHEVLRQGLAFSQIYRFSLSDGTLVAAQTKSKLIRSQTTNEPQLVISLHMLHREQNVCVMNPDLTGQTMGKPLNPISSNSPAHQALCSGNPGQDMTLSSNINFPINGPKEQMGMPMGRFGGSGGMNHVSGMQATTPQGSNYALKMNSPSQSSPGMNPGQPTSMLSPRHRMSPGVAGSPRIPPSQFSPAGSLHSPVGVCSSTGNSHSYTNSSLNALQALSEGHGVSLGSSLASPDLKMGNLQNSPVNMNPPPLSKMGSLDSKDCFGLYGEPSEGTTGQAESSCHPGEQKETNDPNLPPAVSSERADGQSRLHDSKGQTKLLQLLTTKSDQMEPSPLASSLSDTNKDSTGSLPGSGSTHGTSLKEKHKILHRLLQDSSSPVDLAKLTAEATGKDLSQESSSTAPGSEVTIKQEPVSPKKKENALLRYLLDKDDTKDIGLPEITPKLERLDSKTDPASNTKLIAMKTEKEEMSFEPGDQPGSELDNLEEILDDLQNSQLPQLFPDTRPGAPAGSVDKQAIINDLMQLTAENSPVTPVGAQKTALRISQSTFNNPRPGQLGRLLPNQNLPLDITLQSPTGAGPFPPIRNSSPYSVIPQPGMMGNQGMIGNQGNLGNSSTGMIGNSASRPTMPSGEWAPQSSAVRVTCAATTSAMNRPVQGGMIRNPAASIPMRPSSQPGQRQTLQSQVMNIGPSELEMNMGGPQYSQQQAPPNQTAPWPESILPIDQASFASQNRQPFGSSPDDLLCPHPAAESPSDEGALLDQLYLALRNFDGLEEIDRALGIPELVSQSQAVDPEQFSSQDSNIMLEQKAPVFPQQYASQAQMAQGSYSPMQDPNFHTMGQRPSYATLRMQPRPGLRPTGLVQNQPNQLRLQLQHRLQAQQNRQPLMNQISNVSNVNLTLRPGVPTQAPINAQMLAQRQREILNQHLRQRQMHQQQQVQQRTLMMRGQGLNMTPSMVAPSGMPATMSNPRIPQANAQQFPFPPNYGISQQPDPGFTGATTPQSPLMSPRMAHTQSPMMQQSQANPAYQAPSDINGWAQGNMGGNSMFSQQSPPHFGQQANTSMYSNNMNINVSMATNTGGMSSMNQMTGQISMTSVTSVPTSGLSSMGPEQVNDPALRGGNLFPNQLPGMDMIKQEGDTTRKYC
Chain of Nonstructural protein 1 (Q194T2 whole entry): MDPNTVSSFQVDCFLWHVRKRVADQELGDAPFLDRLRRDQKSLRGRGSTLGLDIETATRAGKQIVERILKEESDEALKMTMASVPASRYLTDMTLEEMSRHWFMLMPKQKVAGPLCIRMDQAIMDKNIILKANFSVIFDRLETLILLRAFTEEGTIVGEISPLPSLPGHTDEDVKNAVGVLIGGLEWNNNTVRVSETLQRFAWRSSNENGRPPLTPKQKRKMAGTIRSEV

O=C(Oc1cccc(-c2cnc3ccccc3n2)c1)c1ccco1
EC50 (Estrogen receptor): 26.9 µM (active)

Cc1ccc(C(=O)OCC(=O)N(CC(C)C)c2c(N)n(Cc3ccccc3)c(=O)[nH]c2=O)o1
IC50 [1]: > 80 µM (inactive)

COc1cccc(/C=C/C2=CC3(C)CC2(C)C(c2cccc(OC)c2)CC3=O)c1 (centres undefined)
AC50 (Cytochrome P450 2D6): 3.16 µM (inconclusive)

CCOC(=O)c1ccc(-c2ccc(C(=O)Nc3cccnc3)o2)cc1
CC50 [2]: 29.7 µM (active)
IC50 (cells): 7.87 µM (active)

CCCCCCn1c(=O)c(C(=O)Nc2nnc(C)s2)c(O)c2ccccc21
CC50 [2]: > 40 µM (active)
IC50 (cells): 22.6 µM (active)

Sc1nnc(-c2cc(-c3ccco3)[nH]n2)n1-c1ccccc1Cl
IC50 (Estrogen receptor beta [3]): > 50 µM (not active)
IC50 (Estrogen receptor beta [4]): > 109 µM (not active)
IC50 [5]: 5.55 µM (active)

Cc1ccc2cc(CCNC(=O)c3ccc(S(=O)(=O)N4CCCCC4)cc3)c(O)nc2c1
IC50 (Hexokinase HKDC1): 8.17 µM (active)

CC(=O)C1=C(C)OC(N)=C(C#N)C1c1ccco1 (centres undefined)
IC50 (Bcl-2-like protein 10): > 6.25 µM (inactive)

CCc1nnc(NC(=O)CSc2ccc(-c3nc4ccccc4[nH]3)cn2)s1
IC50 [6]: 17.1 µM (not active)
IC50 [7]: > 111 µM (not active)

Cc1ccc(C)n1-c1sccc1C(=O)O
IC50 (Bcl-2-like protein 10): 0.783 µM (active)
IC50 (Estrogen receptor beta [3]): 4.48 µM (active)
IC50 (Estrogen receptor beta [4]): 6.1 µM (not active)
IC50 [8]: 46.9 µM (active)

COc1ccc(Cc2nnc(NC(=O)Nc3ccccc3F)s2)cc1OC
IC50 [6]: 6.66 µM (active)
IC50 [7]: > 111 µM (not active)

Cc1ccc(Nc2ccccc2N)cc1
CC50 [2]: > 40 µM (active)
IC50 (Nonstructural protein 1): 21.9 µM (active)
IC50 (cells): 0.74 µM (active)

COC(=O)c1ccc(NCc2cc(O)ccc2O)cc1
IC50 (Hexokinase HKDC1): 12.2 µM (active)

CCOC(=O)C(C)Oc1cccc2c(=O)n(CC(=O)Nc3ccc4c(c3)OCCO4)ccc12 (centres undefined)
EC50 (Estrogen receptor): 12.6 µM (not active)

CSc1nc2n(n1)C(c1ccccn1)C1=C(O)CC(C)(C)CC1=N2 (centres undefined)
IC50 (Bcl-2-like protein 10): > 100 µM (inactive)

Cc1ccc(/C=C2\SC(N)=NC2=O)s1
EC50 [9]: > 79.4 µM (not active)
EC50 [10]: > 79.4 µM (not active)
EC50 [11]: > 79.4 µM (not active)

C[C@]12CC[C@@H]3c4ccc(O)cc4[C@@H](O)C[C@H]3[C@@H]1CC[C@@H]2O
EC50 (Estrogen receptor): 12.7 µM (active)

CSc1ccccc1NC(=O)Cn1nnc(-c2ccc(S(C)(=O)=O)cc2)n1
IC50 [6]: 6.17 µM (active)
IC50 [7]: > 111 µM (not active)

O=S1(=O)CC2N=C(N(Cc3ccc(F)cc3Cl)c3ccccc3F)SC2C1 (centres undefined)
EC50 [9]: > 79.4 µM (not active)
EC50 [10]: > 79.4 µM (not active)
EC50 [11]: > 79.4 µM (not active)

Cc1nc2c(O)c3c(c(O)c2nc1C)C1C=CC3CC1
IC50 (Hexokinase HKDC1): 2.23 µM (active)

COc1ccccc1CN(C)C(=O)c1ccc2c(c1)NC(=O)CS2
EC50 [9]: > 79.4 µM (not active)
EC50 [10]: > 79.4 µM (not active)
EC50 [11]: > 79.4 µM (not active)
